According to patent US5491072A, “N-alkylacridan carboxyl derivatives useful for chemiluminescent detection” (Lumigen, Inc., priority 1993, dated 1996):

System: human transferrin
Assay: Chemiluminescent detection of proteins by Western blot
Description: To determine the sensitivity of reagents of the present invention for detection of proteins by Western blotting, a model system of transferrin was used to provide polypeptide bands in known quantities.
Rabbit anti-goat IgG-peroxidase conjugate and rabbit anti-goat IgG-peroxidase were obtained from Cappel Products (Durham, N.C.). Human transferrin and fractionated goat anti-human transferrin serum were purchased from Sigma Chemical Co. (St. Louis, Mo.)). The IgG sample was centrifuged at 10,000 g for two minutes and the supernatant was used in the immunological reaction. Immobilon™-P transfer membrane was obtained from Millipore Corp. (Bedford, Mass.). Kodak (Rochester, N.Y.) X-OMAT AR and OMC films were used in the assay procedure.
SDS-PAGE was performed utilizing the buffer system described by Laemmli (U. K. Laemmli, Nature (London), 227, 680 (1970)). The stacking gel was 4.38% acrylamide: 0.12% bisacrylamide. The separating gel was 6.81% acrylamide: 0.19% bisacrylamide. Following electrophoresis the gel was equilibrated for 7-8 minutes with the transfer buffer which contained 20 mM Tris, 153 mMglycine and 20% (v/v) methanol. The gel, sandwiched between a sheet of transfer membrane and a sheet of chromatography paper 3MM (Whatman), was placed in the transfer unit (Bio-Rad Laboratories, Richmond, Calif.). […]

For `CN1c2ccccc2C(C(=O)Oc2ccc(O)cc2)c2ccccc21` [Compound 1b, 4'-Hydroxyphenyl 10-methylacridan-9-carboxylate], the “duration of detectable chemiluminescence on membrane (X-ray film)” value (HRP-conjugate on membrane, Western blot) was “at least three hours” and the “transferrin standards clearly visible down to” value (detection reagent with 5 × 10^-5 M 1b and NaBO3, 7 sec exposure X-OMAT AR film or 30 second exposure OMC film) was 20 pg/slot.
